Laboratory results from patent US11542240B2, “STK19 inhibitors for treatment of cancer” (TRUSTEES OF BOSTON UNIVERSITY, priority 2018, dated 2023).

Tests used:
WM2032 cells = format: cell-based, human; conditions: WM2032, G9a inhibition by A-366
Text: (§1) In addition, the inventors investigated the growth inhibitory effects of IV in melanoma cells with different NRAS and BRAF status, including A375 and UACC62 (NRASWT, BRAFV600E), and SK-MEL-2 and WM2032 (NRASQ61R, BRAFWT).
(§2) To further confirm the pharmacological effects of IV derive from STK19 inhibition and not G9a inhibition, the inventors investigated the role of G9a in NRAS signaling activation. G9a was silenced by G9a-specific shRNA or inhibited by a specific inhibitor, A-366, in SK-MEL-2 and WM2032 melanoma cells. […] In summary, ZT-12-037-01 (IV) is a specific STK19-targeted inhibitor to block oncogenic NRAS-driven melanocyte malignant transformation and melanoma growth.

SK-MEL-2 cells = format: cell-based, human; conditions: SK-MEL-2, G9a inhibition by A-366
Text: as §1, §2

STK19 = STK19 (Homo sapiens (Human), UniProt P49842); assay: STK19 kinase inhibitory activity, ADP-Glo kinase assay with NRAS substrate; format: biochemical
Sequence of STK19 (P49842 other isoform, or with tags, fused parts or gaps): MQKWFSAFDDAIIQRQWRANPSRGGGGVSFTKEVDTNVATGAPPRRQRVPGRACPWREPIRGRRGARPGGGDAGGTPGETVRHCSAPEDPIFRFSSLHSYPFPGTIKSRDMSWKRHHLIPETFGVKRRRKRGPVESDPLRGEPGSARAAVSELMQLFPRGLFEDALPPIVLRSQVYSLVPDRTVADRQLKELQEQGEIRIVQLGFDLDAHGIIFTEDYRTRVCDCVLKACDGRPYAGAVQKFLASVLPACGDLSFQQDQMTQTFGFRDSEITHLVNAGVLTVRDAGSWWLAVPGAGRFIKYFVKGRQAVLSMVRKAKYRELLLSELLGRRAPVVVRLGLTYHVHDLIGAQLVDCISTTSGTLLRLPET

SMILES	H3K9 methylation levels (WM2032 cells)	H3K9 methylation levels (SK-MEL-2 cells)	inhibitory potential toward STK19 (STK19; in vitro kinase assay)	inhibition at 10 µM (STK19) [%]
COc1cc2c(cc1OCCCN1CCCC1)N=C(N)C21CCC1 [Formula A-366, reference compound]	markedly repressed	markedly repressed	little inhibitory potential	–
COc1cc2nc(N3CCOCC3)nc(NC3CCN(C(C)C)CC3)c2cc1OC [Formula XXI]	–	–	–	59
